Measurements reported in ChEMBL document CHEMBL3217662 (Medchemcomm, 2011).

Tests used:
[1] = Cytotoxicity against human MT2 cells assessed as reduction in cell viability after 5 days by XTT assay; type: cell-based
[2] = test system: Human immunodeficiency virus 1; assay: Antiviral activity against wild type HIV1 3B infected in human MT2 cells assessed as virus-induced cytopathic effect after 5 days by XTT assay; type: functional, organism-based; conditions: Human immunodeficiency virus 1, 3B, MT2, 120 h
[3] = Cytotoxicity against human HepG2 cells assessed as reduction in cell viability after 5 days by XTT assay; type: cell-based
[4] = test system: Human immunodeficiency virus 1; assay: Fold resistance, ratio of EC50 for HIV1 3B harboring protease D30N/54V/L90M mutant infected in human MT2 cells to EC50 for wild type HIV1 3B infected in human MT2 cells; type: functional
Protease = Protease (Human immunodeficiency virus 1, UniProt Q9YQ12); assay: Inhibition of HIV1 protease using fluorogenic hexapeptide substrate (2-aminobenzoyl)Thr-Ile-Nle-(p-nitro)Phe-Gln-Arg by fluorimeter
[5] = test system: Human immunodeficiency virus 1; assay: Fold resistance, ratio of EC50 for HIV1 3B harboring protease I84V/L90M mutant infected in human MT2 cells to EC50 for wild type HIV1 3B infected in human MT2 cells; type: functional
[6] = test system: Human immunodeficiency virus 1; assay: Fold resistance, ratio of EC50 for HIV1 3B harboring protease G48V/V82A/I84V/L90M mutant infected in human MT2 cells to EC50 for wild type HIV1 3B infected in human MT2 cells; type: functional
[7] = test system: Human immunodeficiency virus 1; assay: Fold resistance, ratio of EC50 for HIV1 3B harboring protease M46I/V82T/L90M mutant infected in human MT2 cells to EC50 for wild type HIV1 3B infected in human MT2 cells; type: functional
[8] = test system: Human immunodeficiency virus 1; assay: Fold resistance, ratio of EC50 for HIV1 3B harboring protease M46I/I50V mutant infected in human MT2 cells to EC50 for wild type HIV1 3B infected in human MT2 cells; type: functional
[9] = test system: Human immunodeficiency virus 1; assay: Fold resistance, ratio of EC50 for HIV1 3B harboring protease G48V/I54V/V82S mutant infected in human MT2 cells to EC50 for wild type HIV1 3B infected in human MT2 cells; type: functional
[10] = Oral bioavailability in Beagle dog at 10 mg/kg in presence of 10 mg/kg COBI; type: ADME, organism-based, Canis lupus familiaris; conditions: in vivo
[11] = test system: Human immunodeficiency virus 1; assay: Antiviral activity against wild type HIV1 3B infected in human MT2 cells assessed as virus-induced cytopathic effect after 5 days by XTT assay relative to in the presence of 50% pooled human serum; type: functional
[12] = Oral bioavailability in Beagle dog at 10 mg/kg; type: ADME, organism-based, Canis lupus familiaris; conditions: in vivo
[13] = (§1) Intrinsic clearance in human liver microsomes in presence of 1 uM COBI; type: ADME; conditions: liver microsomes, with COBI 1 uM, read-out: CLH
[14] = Intrinsic clearance in human liver microsomes; type: ADME; conditions: read-out: CLH
[15] = test system: Human immunodeficiency virus 1; assay: Antiviral activity against wild type HIV1 3B infected in human MT2 cells assessed as fold resistance after 11 months incubation; type: functional
[16] = Clearance in Beagle dog at 2 mg/kg, iv over 30 mins; type: ADME, organism-based, Canis lupus familiaris; parameters: dose 2 mg/kg, route intravenous; conditions: in vivo
[17] = (§2) Intrinsic clearance in human liver microsomes in presence of 1 uM RTV; type: ADME; conditions: liver microsomes, with RTV 1 uM, read-out: CLH
Liver microsome [18] = assay: as §1; type: ADME; conditions: microsomes
Liver microsome [19] = assay: as §2; type: ADME; conditions: microsomes

Protease, sequence (Q9YQ12 whole entry): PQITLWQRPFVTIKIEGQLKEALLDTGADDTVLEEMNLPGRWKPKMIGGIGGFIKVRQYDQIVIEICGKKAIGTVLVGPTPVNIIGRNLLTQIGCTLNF

Structure (SMILES)	CC50 at 120 h [1] [nM]	EC50 [2] [nM]	CC50 at 120 h [3] [nM]	Ki (Protease) [nM]	Ratio EC50 [5]	Ratio EC50 [8]	Ratio EC50 [11]	further results
CC(C)(C)NC(=O)[C@@H]1C[C@@H]2CCCC[C@@H]2CN1C[C@@H](O)[C@H](Cc1ccccc1)NC(=O)[C@H](CC(N)=O)NC(=O)c1ccc2ccccc2n1	32300	13.6	12400					
CC(C)CN(C[C@@H](O)[C@H](Cc1ccccc1)NC(=O)O[C@H]1CCOC1)S(=O)(=O)c1ccc(N)cc1	> 100000	24	98400	0.345	16.3	159		Ratio EC50 [4]: 0.8; Ratio EC50 [6]: 20; Ratio EC50 [7]: 5.9; Ratio EC50 [9]: 0.9
CCOP(=O)(COc1ccc(C[C@H](NC(=O)O[C@H]2CO[C@H]3OCC[C@H]32)[C@H](O)CN(CC(C)C)S(=O)(=O)c2ccc(OC)cc2)cc1)OCC	> 100000	3.5	61300	0.0081	0.7	2.4	2.7	bioavailability [10]: 100%; bioavailability [12]: 6.9%; microsomal CLint [13]: 1 µL/min/mg; Ratio EC50 [4]: 0.2; microsomal CLint [14]: 9.2 µL/min/mg; fold change (FC) [15]: 15; clearance [16]: 35.5 mL/min/kg; Ratio EC50 [6]: 0.6; microsomal CLint [17]: 2.6 µL/min/mg; Ratio EC50 [7]: 0.9; Ratio EC50 [9]: 0.1
CC(C)CN(C[C@@H](O)[C@H](Cc1ccccc1)NC(=O)O[C@H]1CO[C@H]2OCC[C@H]21)S(=O)(=O)c1ccc(N)cc1	> 100000	2.3	95500					microsomal CLint [13]: 0.9 µL/min/mg; microsomal CLint [14]: 30.9 µL/min/mg; microsomal CLint [17]: 1.6 µL/min/mg
COc1ccc(S(=O)(=O)N(CC(C)C)C[C@@H](O)[C@H](Cc2ccc(O)cc2)NC(=O)O[C@H]2CO[C@H]3OCC[C@H]32)cc1		6.9		0.0053	0.8	5.1		
COc1ccc(C[C@H](NC(=O)O[C@H]2CO[C@H]3OCC[C@H]32)[C@H](O)CN(CC(C)C)S(=O)(=O)c2ccc(OC)cc2)cc1		0.06			17	157		
COC(=O)c1ccc(C[C@H](NC(=O)O[C@H]2CO[C@H]3OCC[C@H]32)[C@H](O)CN(CC(C)C)S(=O)(=O)c2ccc(OC)cc2)cc1		0.3		0.0054	1.2	11		
CCOP(=O)(OCC)c1ccc(C[C@H](NC(=O)O[C@H]2CO[C@H]3OCC[C@H]32)[C@H](O)CN(CC(C)C)S(=O)(=O)c2ccc(OC)cc2)cc1		7.5		0.0012	0.5	4.5		
CCOP(=O)(Cc1ccc(C[C@H](NC(=O)O[C@H]2CO[C@H]3OCC[C@H]32)[C@H](O)CN(CC(C)C)S(=O)(=O)c2ccc(OC)cc2)cc1)OCC		5.9		0.0084	5.8	36	2.4	
CCOP(=O)(CCc1ccc(C[C@H](NC(=O)O[C@H]2CO[C@H]3OCC[C@H]32)[C@H](O)CN(CC(C)C)S(=O)(=O)c2ccc(OC)cc2)cc1)OCC		2.1		0.0091	0.4	3.1	2.6	
COc1ccc(S(=O)(=O)N(CC(C)C)C[C@@H](O)[C@H](Cc2ccc(OCP(=O)(OC)OC)cc2)NC(=O)O[C@H]2CO[C@H]3OCC[C@H]32)cc1		18.8		0.0181	0.3			
COc1ccc(S(=O)(=O)N(CC(C)C)C[C@@H](O)[C@H](Cc2ccc(OCP(=O)(OC(C)C)OC(C)C)cc2)NC(=O)O[C@H]2CO[C@H]3OCC[C@H]32)cc1		1.9		0.0057	1.3	6	3.6	
COc1ccc(S(=O)(=O)N(CC(C)C)C[C@@H](O)[C@H](Cc2ccccc2)NC(=O)O[C@H]2CO[C@H]3OCC[C@H]32)cc1		0.35						
CC(C)(C)NC(=O)[C@@H]1CN(Cc2cccnc2)CCN1C[C@@H](O)C[C@@H](Cc1ccccc1)C(=O)N[C@H]1c2ccccc2C[C@H]1O	> 100000	12.4	74700					
Cc1c(O)cccc1C(=O)N[C@@H](CSc1ccccc1)[C@H](O)CN1C[C@H]2CCCC[C@H]2C[C@H]1C(=O)NC(C)(C)C	19100	4.9	7400	0.732	>92	16.5	19.2	Ratio EC50 [4]: >68; Ratio EC50 [6]: 30.6; Ratio EC50 [7]: 26; Ratio EC50 [9]: 25.4
COC(=O)N[C@H](C(=O)N[C@@H](Cc1ccccc1)[C@@H](O)CN(Cc1ccc(-c2ccccn2)cc1)NC(=O)[C@@H](NC(=O)OC)C(C)(C)C)C(C)(C)C [ATAZANAVIR]	79800	2.2	26500	0.0479	>100	1.9	2.4	CLH (Liver microsome [18]): 0.9 µL/min/mg; Ratio EC50 [4]: 141; microsomal CLint [14]: 23 µL/min/mg; Ratio EC50 [6]: 102; CLH (Liver microsome [19]): 1.4 µL/min/mg; Ratio EC50 [7]: 43.9; Ratio EC50 [9]: 127
Cc1cccc(C)c1OCC(=O)N[C@@H](Cc1ccccc1)[C@@H](O)C[C@H](Cc1ccccc1)NC(=O)[C@H](C(C)C)N1CCCNC1=O [LOPINAVIR]	67900	5.6	27800					microsomal CLint [13]: 2.7 µL/min/mg; microsomal CLint [14]: 544 µL/min/mg; microsomal CLint [17]: 1.6 µL/min/mg
CC(C)c1nc(CN(C)C(=O)N[C@H](C(=O)N[C@@H](Cc2ccccc2)C[C@H](O)[C@H](Cc2ccccc2)NC(=O)OCc2cncs2)C(C)C)cs1 [RITONAVIR]		32.2						
